± gives the standard deviation of the averaged measurements.
Columns and labels:
[1] = compound: CC(=O)c1c(C)c2cnc(Nc3ccc(N4CCNCC4)cn3)nc2n(C2CCCC2)c1=O; test: surviving fraction relative to DMSO-only wells; higher = less growth inhibition; details: exposure time: 5 days
Procedure, shortened: (§1)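 For each tumour cell line, log-phase cells were put into 384-well plates at 250–500 cells per well, then after 24 hours exposed continuously for five days to inhibitors at 0.5, 1, 5, 10, 50, 100, 500 and 1000 nM. Viability was assessed by CellTiter-Glo luminescence, with surviving fraction expressed relative to the median of DMSO-only wells. Lines were screened three times and retained only if replicate Pearson r exceeded 0.7 and median Z' exceeded 0.3.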

[2] = compound: CC(=O)NCC(=O)N1[C@@H]2CC[C@H]1c1ccc(Nc3ncc(C(F)(F)F)c(NC4CCC4)n3)cc12; test: as above; details: exposure time: 5 days
Procedure, shortened: as §1

Test System	surviving fraction ([1]; 0.5 nM)	surviving fraction ([1]; 1 nM)	surviving fraction ([1]; 5 nM)	surviving fraction ([1]; 10 nM)	surviving fraction ([1]; 50 nM)	surviving fraction ([1]; 100 nM)	surviving fraction ([1]; 500 nM)	surviving fraction ([1]; 1000 nM)	surviving fraction ([2]; 0.5 nM)	surviving fraction ([2]; 1 nM)	surviving fraction ([2]; 5 nM)	surviving fraction ([2]; 10 nM)	surviving fraction ([2]; 50 nM)	surviving fraction ([2]; 100 nM)	surviving fraction ([2]; 500 nM)	surviving fraction ([2]; 1000 nM)
SIHA CERVIX	1.09 ± 0.085	1.12 ± 0.087	1.17 ± 0.11	1.11 ± 0.041	1.1 ± 0.039	1.13 ± 0.11	1.12 ± 0.15	1.02 ± 0.067	0.799 ± 0.044	0.859 ± 0.034	0.933 ± 0.053	0.978 ± 0.042	1.01 ± 0.064	0.801 ± 0.046	0.631 ± 0.046	0.531 ± 0.034
SKBR3 BREAST	1.04 ± 0.16	1.12 ± 0.066	0.958 ± 0.06	0.987 ± 0.22	0.923 ± 0.056	0.892 ± 0.12	0.82 ± 0.085	0.855 ± 0.067	1.09 ± 0.12	0.942 ± 0.2	1.07 ± 0.18	1 ± 0.16	0.762 ± 0.06	0.892 ± 0.14	1.13 ± 0.039	0.865 ± 0.17
SNU475 LIVER	1.02 ± 0.037	1.01 ± 0.041	1.06 ± 0.026	1.01 ± 0.073	1.07 ± 0.02	1.03 ± 0.088	1.04 ± 0.021	0.917 ± 0.04	0.9533 ± 0.0031	0.962 ± 0.038	0.9607 ± 0.0076	0.899 ± 0.051	0.902 ± 0.035	0.804 ± 0.035	0.686 ± 0.079	0.529 ± 0.041
SUM149 BREAST	1.15 ± 0.042	1.09 ± 0.049	1.04 ± 0.076	0.943 ± 0.11	1.1 ± 0.065	1.14 ± 0.064	0.871 ± 0.024	0.88 ± 0.07	0.949 ± 0.11	1.02 ± 0.11	1.07 ± 0.089	0.986 ± 0.056	0.67 ± 0.074	0.389 ± 0.071	0.267 ± 0.029	0.224 ± 0.032
SUM159 BREAST	0.932 ± 0.26	0.942 ± 0.23	0.951 ± 0.18	0.893 ± 0.28	0.916 ± 0.3	0.842 ± 0.43	0.943 ± 0.27	0.925 ± 0.28	1.11 ± 0.22	1.08 ± 0.16	1.1 ± 0.21	1.07 ± 0.16	0.956 ± 0.085	0.72 ± 0.027	0.56 ± 0.014	0.436 ± 0.0095
SYO1 SYNOVIAL	0.989 ± 0.024	0.966 ± 0.021	0.984 ± 0.024	1.02 ± 0.054	0.995 ± 0.018	0.98 ± 0.066	0.792 ± 0.061	0.706 ± 0.055	0.943 ± 0.061	0.955 ± 0.024	0.93 ± 0.08	0.893 ± 0.078	0.388 ± 0.06	0.266 ± 0.027	0.2212 ± 0.0014	0.237 ± 0.013
T47D BREAST	1.05 ± 0.019	1.039 ± 0.0056	1.09 ± 0.022	1.06 ± 0.022	1.17 ± 0.014	1.08 ± 0.045	1.16 ± 0.042	1.11 ± 0.028	0.9824 ± 0.0044	1.02 ± 0.014	1.03 ± 0.032	1.05 ± 0.046	1.16 ± 0.025	1.09 ± 0.013	1.12 ± 0.018	1.07 ± 0.013
U2OS BONE	1.02 ± 0.044	1.01 ± 0.04	1.06 ± 0.021	1.06 ± 0.033	1.06 ± 0.034	1.06 ± 0.033	0.979 ± 0.032	0.981 ± 0.062	1.07 ± 0.016	1.02 ± 0.04	1.04 ± 0.061	1.01 ± 0.014	0.725 ± 0.015	0.483 ± 0.0044	0.314 ± 0.016	0.225 ± 0.011
YAMATO SYNOVIAL	1.2 ± 0.07	1.14 ± 0.065	1.28 ± 0.11	1.23 ± 0.14	1.3 ± 0.061	1.25 ± 0.047	0.984 ± 0.034	0.935 ± 0.056	1.06 ± 0.048	1.02 ± 0.049	1.1 ± 0.061	1.14 ± 0.058	0.994 ± 0.005	0.738 ± 0.023	0.622 ± 0.022	0.543 ± 0.058
ZR751 BREAST	1.07 ± 0.19	1.07 ± 0.057	0.923 ± 0.2	0.953 ± 0.15	1.13 ± 0.059	1.04 ± 0.11	1.23 ± 0.12	1.01 ± 0.054	0.874 ± 0.18	0.927 ± 0.062	0.923 ± 0.12	0.925 ± 0.04	0.774 ± 0.1	1.04 ± 0.094	0.815 ± 0.062	0.897 ± 0.038

Source: the supplement of paper PMC6045584
